In PMC7402526, “An in vitro quantitative systems pharmacology approach for deconvolving mechanisms of drug-induced, multilineage cytopenias” (PLoS Computational Biology, 2020):
pEC50: −log10 of the molar value.

How the values were obtained:
[1] = tested on: hematopoietic stem cells (HSCs); assay: Multi-lineage toxicity assay (MLTA), HSCs: concentration-response and QSP model fit; assay type: cell-based, human
Method in brief: (§1)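 Freeze-thawed primary human bone marrow CD34+ cells were cultured 6 days in SFEM II with a cytokine cocktail, drug added on day 0. Subsets were counted by 17-parameter flow cytometry with TruCount beads and normalized to vehicle wells. An Emax QSP model (Emax 0–2, L1 regularization) was fitted to these counts.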

[2] = tested on: multi-potent progenitors (MPPs); assay: MLTA, MPPs: concentration-response and QSP model fit; assay type: cell-based, human; details: Homo sapiens, 144 h
Method in brief: as §1

[3] = tested on: monocyte progenitors (monocyte prog); assay: MLTA, MonoP: concentration-response and QSP model fit; assay type: cell-based, human
Method in brief: as §1

monocytes (monocyte-lin) = assay: MLTA, Mono: concentration-response and QSP model fit; assay type: cell-based, human; details: Homo sapiens, Monocyte, 144 h
Method in brief: as §1

[4] = tested on: early erythroid cells (Eryth I); assay: MLTA, ErythI: concentration-response and QSP model fit; assay type: cell-based, human
Method in brief: as §1

[5] = tested on: late erythroid cells (Eryth II); assay: MLTA, ErythII: concentration-response and QSP model fit; assay type: cell-based, human; details: Homo sapiens, 144 h
Method in brief: as §1

B cells (B-lin) = assay: MLTA, B-lin: concentration-response and QSP model fit; assay type: cell-based, human; details: Homo sapiens, B-cell, 144 h
Method in brief: as §1

[6] = tested on: total dead cells (totalDeadCells); assay: MLTA, total dead cells concentration-response; assay type: cell-based; details: Homo sapiens, 144 h, 6 days, normalized to vehicle control, read-out: total_dead normalized cell count
Method in brief: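 Freeze-thawed primary human bone marrow CD34+ cells in SFEM II with cytokine cocktail, drug added day 0, 6 days at 37°C, 5% CO2. Live/dead counts by 17-parameter flow cytometry with DAPI exclusion, bead-normalized, volume-corrected to cells/mL. Normalized per donor to mean of six vehicle wells; 2–7 donors pooled.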

[7] = cell-killing component, max(0, EmaxT-1)
[8] = QSP model fit of 6-day MLTA data

CC(=O)O[C@H]1C(=O)[C@@]2(C)[C@H]([C@H](OC(=O)c3ccccc3)[C@]3(O)C[C@H](OC(=O)[C@H](O)[C@@H](NC(=O)c4ccccc4)c4ccccc4)C(C)=C1C3(C)C)[C@]1(OC(C)=O)CO[C@@H]1C[C@@H]2O [paclitaxel]
pEC50 ([1]; Homo sapiens, Hematopoietic stem cell, 144 h, QSP model fit of 6-day MLTA data): 7.21
activity at 0.0002 µM ([1]; Homo sapiens, Hematopoietic stem cell, 144 h, dose 0.2 nM, 6 days, normalized to vehicle control, read-out: HSCs normalized cell count): 109%
activity at 0.001 µM ([1]; Homo sapiens, Hematopoietic stem cell, 144 h, dose 1 nM, 6 days, normalized to vehicle control, read-out: HSCs normalized cell count): 87.5%
activity at 0.005 µM ([1]; Homo sapiens, Hematopoietic stem cell, 144 h, dose 5 nM, 6 days, normalized to vehicle control, read-out: HSCs normalized cell count): 118%
activity at 0.025 µM ([1]; Homo sapiens, Hematopoietic stem cell, 144 h, dose 25 nM, 6 days, normalized to vehicle control, read-out: HSCs normalized cell count): 28.1%
activity at 0.1 µM ([1]; Homo sapiens, Hematopoietic stem cell, 144 h, dose 100 nM, 6 days, normalized to vehicle control, read-out: HSCs normalized cell count): 4.8%
activity at 0.5 µM ([1]; Homo sapiens, Hematopoietic stem cell, 144 h, dose 500 nM, 6 days, normalized to vehicle control, read-out: HSCs normalized cell count): 1.08%
activity at 2.5 µM ([1]; Homo sapiens, Hematopoietic stem cell, 144 h, dose 2500 nM, 6 days, normalized to vehicle control, read-out: HSCs normalized cell count): 1.34%
Emax ([1]; Homo sapiens, Hematopoietic stem cell, 144 h, parameter from QSP model fitting, read-out: Emax_drug_HSC): 119%
EmaxCK,HSC [1, 7]: 0.188 day⁻¹
activity at 0.0002 µM ([2]; dose 0.2 nM, 6 days, normalized to vehicle control, read-out: MPPs normalized cell count): 78.7%
activity at 0.001 µM ([2]; dose 1 nM, 6 days, normalized to vehicle control, read-out: MPPs normalized cell count): 90%
activity at 0.005 µM ([2]; dose 5 nM, 6 days, normalized to vehicle control, read-out: MPPs normalized cell count): 71.3%
activity at 0.025 µM ([2]; dose 25 nM, 6 days, normalized to vehicle control, read-out: MPPs normalized cell count): 28%
activity at 0.1 µM ([2]; dose 100 nM, 6 days, normalized to vehicle control, read-out: MPPs normalized cell count): 2.32%
activity at 0.5 µM ([2]; dose 500 nM, 6 days, normalized to vehicle control, read-out: MPPs normalized cell count): 0.649%
activity at 2.5 µM ([2]; dose 2500 nM, 6 days, normalized to vehicle control, read-out: MPPs normalized cell count): 0.406%
Emax ([2]; parameter from QSP model fitting, read-out: Emax_drug_MPP): 0.18%
pEC50 ([3]; Homo sapiens, Monocyte, 144 h, QSP model fit of 6-day MLTA data, read-out: EC50MonoP): 7.61
activity at 0.0002 µM ([3]; Homo sapiens, Monocyte, 144 h, dose 0.2 nM, 6 days, normalized to vehicle control, read-out: MonoPs normalized cell count): 102%
activity at 0.001 µM ([3]; Homo sapiens, Monocyte, 144 h, dose 1 nM, 6 days, normalized to vehicle control, read-out: MonoPs normalized cell count): 112%
activity at 0.005 µM ([3]; Homo sapiens, Monocyte, 144 h, dose 5 nM, 6 days, normalized to vehicle control, read-out: MonoPs normalized cell count): 89%
activity at 0.025 µM ([3]; Homo sapiens, Monocyte, 144 h, dose 25 nM, 6 days, normalized to vehicle control, read-out: MonoPs normalized cell count): 0.562%
activity at 0.1 µM ([3]; Homo sapiens, Monocyte, 144 h, dose 100 nM, 6 days, normalized to vehicle control, read-out: MonoPs normalized cell count): 0.118%
activity at 0.5 µM ([3]; Homo sapiens, Monocyte, 144 h, dose 500 nM, 6 days, normalized to vehicle control, read-out: MonoPs normalized cell count): 0.188%
activity at 2.5 µM ([3]; Homo sapiens, Monocyte, 144 h, dose 2500 nM, 6 days, normalized to vehicle control, read-out: MonoPs normalized cell count): 0.286%
Emax ([3]; Homo sapiens, Monocyte, 144 h, parameter from QSP model fitting, read-out: Emax_drug_MonoP): 156%
EmaxCK,MonoP [3, 7]: 0.556 day⁻¹
pEC50 (monocytes (monocyte-lin); [8]): 7.52
activity at 0.0002 µM (monocytes (monocyte-lin); dose 0.2 nM, 6 days, normalized to vehicle control, read-out: Mon normalized cell count): 90.9%
activity at 0.001 µM (monocytes (monocyte-lin); dose 1 nM, 6 days, normalized to vehicle control, read-out: Mon normalized cell count): 93.8%
activity at 0.005 µM (monocytes (monocyte-lin); dose 5 nM, 6 days, normalized to vehicle control, read-out: Mon normalized cell count): 77%
activity at 0.025 µM (monocytes (monocyte-lin); dose 25 nM, 6 days, normalized to vehicle control, read-out: Mon normalized cell count): 0.638%
activity at 0.1 µM (monocytes (monocyte-lin); dose 100 nM, 6 days, normalized to vehicle control, read-out: Mon normalized cell count): 0.419%
activity at 0.5 µM (monocytes (monocyte-lin); dose 500 nM, 6 days, normalized to vehicle control, read-out: Mon normalized cell count): 1.04%
activity at 2.5 µM (monocytes (monocyte-lin); dose 2500 nM, 6 days, normalized to vehicle control, read-out: Mon normalized cell count): 0.347%
Emax (monocytes (monocyte-lin); parameter from QSP model fitting, read-out: Emax_drug_Mono): 25.8%
pEC50 ([4]; Homo sapiens, 144 h, QSP model fit of 6-day MLTA data, read-out: EC50ErythI): 7.81
activity at 0.0002 µM ([4]; Homo sapiens, 144 h, dose 0.2 nM, 6 days, normalized to vehicle control, read-out: ErythI normalized cell count): 124%
activity at 0.001 µM ([4]; Homo sapiens, 144 h, dose 1 nM, 6 days, normalized to vehicle control, read-out: ErythI normalized cell count): 112%
activity at 0.005 µM ([4]; Homo sapiens, 144 h, dose 5 nM, 6 days, normalized to vehicle control, read-out: ErythI normalized cell count): 83.5%
activity at 0.025 µM ([4]; Homo sapiens, 144 h, dose 25 nM, 6 days, normalized to vehicle control, read-out: ErythI normalized cell count): 2.87%
activity at 0.1 µM ([4]; Homo sapiens, 144 h, dose 100 nM, 6 days, normalized to vehicle control, read-out: ErythI normalized cell count): 0.445%
activity at 0.5 µM ([4]; Homo sapiens, 144 h, dose 500 nM, 6 days, normalized to vehicle control, read-out: ErythI normalized cell count): 0.574%
activity at 2.5 µM ([4]; Homo sapiens, 144 h, dose 2500 nM, 6 days, normalized to vehicle control, read-out: ErythI normalized cell count): 0.379%
Emax ([4]; Homo sapiens, 144 h, parameter from QSP model fitting, read-out: Emax_drug_ErythroidI): 147%
EmaxCK,ErythI [4, 7]: 0.466 day⁻¹
pEC50 ([5]; QSP model fit of 6-day MLTA data, read-out: EC50ErythII): 7.70
activity at 0.0002 µM ([5]; dose 0.2 nM, 6 days, normalized to vehicle control, read-out: ErythII normalized cell count): 90.9%
activity at 0.001 µM ([5]; dose 1 nM, 6 days, normalized to vehicle control, read-out: ErythII normalized cell count): 107%
activity at 0.005 µM ([5]; dose 5 nM, 6 days, normalized to vehicle control, read-out: ErythII normalized cell count): 56.5%
activity at 0.025 µM ([5]; dose 25 nM, 6 days, normalized to vehicle control, read-out: ErythII normalized cell count): 0.128%
activity at 0.1 µM ([5]; dose 100 nM, 6 days, normalized to vehicle control, read-out: ErythII normalized cell count): 0.0395%
activity at 0.5 µM ([5]; dose 500 nM, 6 days, normalized to vehicle control, read-out: ErythII normalized cell count): 0.0174%
activity at 2.5 µM ([5]; dose 2500 nM, 6 days, normalized to vehicle control, read-out: ErythII normalized cell count): 0.00196%
Emax ([5]; parameter from QSP model fitting, read-out: Emax_drug_ErythroidII): 7.1%
pEC50 (B cells (B-lin); [8]): 7.44
activity at 0.0002 µM (B cells (B-lin); dose 0.2 nM, 6 days, normalized to vehicle control, read-out: B-lin normalized cell count): 102%
activity at 0.001 µM (B cells (B-lin); dose 1 nM, 6 days, normalized to vehicle control, read-out: B-lin normalized cell count): 109%
activity at 0.005 µM (B cells (B-lin); dose 5 nM, 6 days, normalized to vehicle control, read-out: B-lin normalized cell count): 75.9%
activity at 0.025 µM (B cells (B-lin); dose 25 nM, 6 days, normalized to vehicle control, read-out: B-lin normalized cell count): 1.34%
activity at 0.1 µM (B cells (B-lin); dose 100 nM, 6 days, normalized to vehicle control, read-out: B-lin normalized cell count): 0.231%
activity at 0.5 µM (B cells (B-lin); dose 500 nM, 6 days, normalized to vehicle control, read-out: B-lin normalized cell count): 0.372%
activity at 2.5 µM (B cells (B-lin); dose 2500 nM, 6 days, normalized to vehicle control, read-out: B-lin normalized cell count): 0.335%
Emax (B cells (B-lin); parameter from QSP model fitting, read-out: Emax_drug_B): 91.4%
activity at 0.0002 µM ([6]; dose 0.2 nM): 105%
activity at 0.001 µM ([6]; dose 1 nM): 113%
activity at 0.005 µM ([6]; dose 5 nM): 115%
activity at 0.025 µM ([6]; dose 25 nM): 75.5%
activity at 0.1 µM ([6]; dose 100 nM): 47.5%
activity at 0.5 µM ([6]; dose 500 nM): 40.7%
activity at 2.5 µM ([6]; dose 2500 nM): 46.1%
